How the values were obtained:
TNF-α production = assay: Inhibiting activity of TNF-α production in LPS-stimulated THP-1 cells (ELISA); type: cell-based; conditions: Homo sapiens, LPS 5 μg/mL, 4 hours, TNF-α in supernatant by ELISA, read-out: IC50 (concentration necessary for inhibiting TNF-α production by 50%)
Procedure: Measurement of inhibiting activity of TNF-α production
After THP-1 cells which had been cultured on PRMI 1640 medium (manufactured by Life Technologies, Inc.) containing 1% inactivated bovine fetal serum (manufactured by Life Technologies, Inc., U.S.A.) and 10 mM HEPES (pH 7.5) seeded on a 96-well plate to 1×10^5 cells/well, 1 μL test compound dissolved in DMSO was added. After incubation at 37° C. for 1 hour in a CO2 incubator, LPS (Wako Pure Chemicals) was added to the final concentration 5 μg/mL. After cultured at 37° C. for 4 hours in a CO2 incubator, the supernatant was obtained by centrifugation. The concentration of TNF-α in the supernatant was measured by ELISA (R&D Systems, Quantikine Kit). The concentration (IC50 value) of the test compound necessary for inhibiting TNF-α production by 50% was calculated using PRIMS 2.01 (Graphpad Software).

SMILES | melting point [°C] | IC50 (TNF-α production) [nM]
Cc1cccc(-c2nc(N)sc2-c2ccncc2)c1 [Reference Example 23-60, [4-(3-methylphenyl)-5-(4-pyridyl)-1,3-thiazol-2-yl]amine] | 255 to 258 | 46
COc1ccc(-c2nc(NC(=O)c3cccnc3)sc2-c2ccncc2)cc1 [Reference Example 23-101, N-[4-(4-methoxyphenyl)-5-(4-pyridyl)-1,3-thiazol-2-yl]nicotinamide] | 278 to 281 | –
Nc1nc(-c2ccc(Cl)cc2)c(-c2ccncc2)s1 [Reference Example 23-61, [4-(4-chlorophenyl)-5-(4-pyridyl)-1,3-thiazol-2-yl]amine] | > 300 | –

Next, values leading:

melting point [°C] | IC50 (TNF-α production) [nM] | SMILES
224 to 225 | 180 | CNc1nc(-c2ccc(Cl)cc2)c(-c2ccncc2)s1 [Reference Example 13-70, N-methyl [4-(4-chlorophenyl)-5-(4-pyridyl)-1,3-thiazol-2-yl]amine]
177 to 178 | 140 | CNc1nc(-c2ccc(OC)cc2)c(-c2ccncc2)s1 [Reference Example 13-16, N-methyl [4-(4-methoxyphenyl)-5-(4-pyridyl)-1,3-thiazol-2-yl]amine]
206 to 207 | – | CNc1nc(-c2ccc(Br)cc2)c(-c2ccncc2)s1 [Reference Example 13-71, N-methyl [4-(4-bromophenyl)-5-(4-pyridyl)-1,3-thiazol-2-yl]amine]

Reference: patent US6962933B1, “Method for inhibiting p38 MAP kinase or TNF-α production using a 1,3-thiazole” (Takeda Pharmaceutical Company Limited, priority 1999, dated 2005)
